Biological target: T1, GluA1 (glutamate ionotropic receptor AMPA type subunit 1) (Homo sapiens, UniProt P42261)
T1 construct: gene GRIA1; Recombinant human GluA1 (AMPA subtype) protein (Abcam ab112297)
Test: SPR (Biacore T200, GluA1 immobilized on CM5 chip, steady-state fit)
Format: binding

T1 sequence (P42261 19-906): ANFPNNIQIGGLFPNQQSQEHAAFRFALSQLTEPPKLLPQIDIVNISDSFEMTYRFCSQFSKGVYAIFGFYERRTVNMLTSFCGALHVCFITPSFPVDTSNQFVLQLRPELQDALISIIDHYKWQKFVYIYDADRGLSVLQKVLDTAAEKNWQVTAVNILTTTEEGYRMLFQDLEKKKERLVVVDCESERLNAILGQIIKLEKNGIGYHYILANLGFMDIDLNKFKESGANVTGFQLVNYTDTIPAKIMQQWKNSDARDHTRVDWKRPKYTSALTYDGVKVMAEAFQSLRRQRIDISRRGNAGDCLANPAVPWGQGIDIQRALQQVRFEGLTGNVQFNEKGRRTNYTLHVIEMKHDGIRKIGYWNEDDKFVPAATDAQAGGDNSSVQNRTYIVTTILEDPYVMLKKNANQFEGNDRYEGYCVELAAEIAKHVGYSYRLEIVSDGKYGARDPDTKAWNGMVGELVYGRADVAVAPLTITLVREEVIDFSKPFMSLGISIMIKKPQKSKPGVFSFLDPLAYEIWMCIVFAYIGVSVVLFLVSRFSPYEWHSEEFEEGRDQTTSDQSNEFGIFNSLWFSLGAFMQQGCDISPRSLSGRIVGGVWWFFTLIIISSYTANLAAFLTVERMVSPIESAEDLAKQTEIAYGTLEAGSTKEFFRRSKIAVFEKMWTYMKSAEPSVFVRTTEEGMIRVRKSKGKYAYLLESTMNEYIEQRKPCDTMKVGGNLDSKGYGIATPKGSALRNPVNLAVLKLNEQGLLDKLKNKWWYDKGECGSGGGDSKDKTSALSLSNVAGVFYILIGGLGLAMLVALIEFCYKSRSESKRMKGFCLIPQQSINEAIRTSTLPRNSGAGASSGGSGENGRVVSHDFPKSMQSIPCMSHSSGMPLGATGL

- Kd: 496 µM
SMILES: O=C(/C=C/c1ccc(O)c(O)c1)O[C@@H]1C[C@](O)(C(=O)O)C[C@@H](O)[C@H]1O [CGA, (1S,3R,4R,5R)-3-[(E)-3-(3,4-dihydroxyphenyl)prop-2-enoyl]oxy-1,4,5-trihydroxycyclohexane-1-carboxylic acid]
